Key:
Test in all cases: relative viability (nuclei count vs DMSO), 5 days (fraction); higher = more cells survive
NCI-H838 = system: NCI-H838
In short: (§1)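 Relative viability is defined as nuclei in treated wells over nuclei in vehicle wells. Duplicate plates were run and medians reported. Lung cancer cell lines in 1536-well plates were dosed by pin tool one day after seeding, with one drug or with a fixed anchor-drug dose plus five library-drug doses (not always all listed) in √10 steps, and nuclei were counted after 5 days.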

UMC-11 = system: UMC-11
In short: as §1

NCI-H1734 = system: NCI-H1734
In short: as §1

HARA = system: HARA
In short: as §1

NCI-H1993 = system: NCI-H1993
In short: as §1

NCI-H1755 = system: NCI-H1755
In short: as §1

COR-L23 = system: COR-L23
In short: as §1

NCI-H1395 = system: NCI-H1395
In short: as §1

NCI-H2228 = system: NCI-H2228
In short: as §1

NCI-H2347 = system: NCI-H2347
In short: as §1

NCI-H2009 = system: NCI-H2009
In short: as §1

NCI-H2342 = system: NCI-H2342
In short: as §1

NCI-H358 = system: NCI-H358
In short: as §1

EKVX = system: EKVX
In short: as §1

HCC-15 = system: HCC-15
In short: as §1

SK-MES-1 = system: SK-MES-1
In short: as §1

HOP-62 = system: HOP-62
In short: as §1

PC-14 = system: PC-14
In short: as §1

COR-L 105 = system: COR-L 105
In short: as §1

NCI-H2170 = system: NCI-H2170
In short: as §1

NCI-H1793 = system: NCI-H1793
In short: as §1

NCI-H1355 = system: NCI-H1355
In short: as §1

NCI-H647 = system: NCI-H647
In short: as §1

CC1(C)CCC(c2ccc(Cl)cc2)=C(CN2CCN(c3ccc(C(=O)NS(=O)(=O)c4ccc(N[C@H](CCN5CCOCC5)CSc5ccccc5)c(S(=O)(=O)C(F)(F)F)c4)cc3)CC2)C1 [Navitoclax] + Cc1nc(Nc2ncc(C(=O)Nc3c(C)cccc3Cl)s2)cc(N2CCN(CCO)CC2)n1 [Dasatinib] (partner 0.075 µM)
relative viability (NCI-H838; first compound 0.005 µM): 0.267
relative viability (NCI-H838; first compound 0.01581 µM): 0.334
relative viability (NCI-H838; first compound 0.05 µM): 0.26
relative viability (NCI-H838; first compound 0.1581 µM): 0.238
relative viability (NCI-H838; first compound 0.5 µM): 0.36
relative viability (UMC-11; first compound 0.005 µM): 0.451
relative viability (UMC-11; first compound 0.01581 µM): 0.464
relative viability (UMC-11; first compound 0.05 µM): 0.502
relative viability (UMC-11; first compound 0.1581 µM): 0.471
relative viability (UMC-11; first compound 0.5 µM): 0.324
relative viability (NCI-H1734; first compound 0.005 µM): 0.41
relative viability (NCI-H1734; first compound 0.01581 µM): 0.544
relative viability (NCI-H1734; first compound 0.1581 µM): 0.425
relative viability (NCI-H1734; first compound 0.5 µM): 0.554
relative viability (HARA; first compound 0.005 µM): 0.308
relative viability (HARA; first compound 0.01581 µM): 0.277
relative viability (HARA; first compound 0.1581 µM): 0.29
relative viability (HARA; first compound 0.5 µM): 0.242
relative viability (NCI-H1993; first compound 0.005 µM): 0.674
relative viability (NCI-H1993; first compound 0.01581 µM): 0.689
relative viability (NCI-H1993; first compound 0.05 µM): 0.467
relative viability (NCI-H1993; first compound 0.1581 µM): 0.625
relative viability (NCI-H1993; first compound 0.5 µM): 0.643
relative viability (NCI-H1755; first compound 0.005 µM): 0.396
relative viability (NCI-H1755; first compound 0.01581 µM): 0.416
relative viability (NCI-H1755; first compound 0.05 µM): 0.262
relative viability (NCI-H1755; first compound 0.1581 µM): 0.339
relative viability (NCI-H1755; first compound 0.5 µM): 0.281
relative viability (COR-L23; first compound 0.005 µM): 0.509
relative viability (COR-L23; first compound 0.01581 µM): 0.595
relative viability (COR-L23; first compound 0.05 µM): 0.521
relative viability (COR-L23; first compound 0.1581 µM): 0.447
relative viability (COR-L23; first compound 0.5 µM): 0.556
relative viability (NCI-H1395; first compound 0.005 µM): 0.404
relative viability (NCI-H1395; first compound 0.01581 µM): 0.42
relative viability (NCI-H1395; first compound 0.05 µM): 0.378
relative viability (NCI-H1395; first compound 0.1581 µM): 0.387
relative viability (NCI-H1395; first compound 0.5 µM): 0.483
relative viability (NCI-H2228; first compound 0.005 µM): 0.519
relative viability (NCI-H2228; first compound 0.01581 µM): 0.525
relative viability (NCI-H2228; first compound 0.1581 µM): 0.592
relative viability (NCI-H2228; first compound 0.5 µM): 0.517
relative viability (NCI-H2347; first compound 0.005 µM): 0.328
relative viability (NCI-H2347; first compound 0.01581 µM): 1
relative viability (NCI-H2347; first compound 0.1581 µM): 0.262
relative viability (NCI-H2347; first compound 0.5 µM): 0.188
relative viability (NCI-H2009; first compound 0.005 µM): 0.232
relative viability (NCI-H2009; first compound 0.01581 µM): 0.383
relative viability (NCI-H2009; first compound 0.05 µM): 0.264
relative viability (NCI-H2009; first compound 0.1581 µM): 0.336
relative viability (NCI-H2009; first compound 0.5 µM): 0.319
relative viability (NCI-H2342; first compound 0.005 µM): 0.32
relative viability (NCI-H2342; first compound 0.01581 µM): 0.309
relative viability (NCI-H2342; first compound 0.05 µM): 0.27
relative viability (NCI-H2342; first compound 0.1581 µM): 0.278
relative viability (NCI-H2342; first compound 0.5 µM): 0.31
relative viability (NCI-H358; first compound 0.005 µM): 0.188
relative viability (NCI-H358; first compound 0.01581 µM): 0.219
relative viability (NCI-H358; first compound 0.05 µM): 0.142
relative viability (NCI-H358; first compound 0.1581 µM): 0.165
relative viability (NCI-H358; first compound 0.5 µM): 0.199
relative viability (EKVX; first compound 0.005 µM): 0.607
relative viability (EKVX; first compound 0.01581 µM): 0.583
relative viability (EKVX; first compound 0.05 µM): 0.512
relative viability (EKVX; first compound 0.1581 µM): 0.692
relative viability (EKVX; first compound 0.5 µM): 0.598
relative viability (HCC-15; first compound 0.005 µM): 0.619
relative viability (HCC-15; first compound 0.01581 µM): 0.643
relative viability (HCC-15; first compound 0.05 µM): 0.577
relative viability (HCC-15; first compound 0.1581 µM): 0.572
relative viability (HCC-15; first compound 0.5 µM): 0.392
relative viability (SK-MES-1; first compound 0.005 µM): 0.324
relative viability (SK-MES-1; first compound 0.01581 µM): 0.466
relative viability (SK-MES-1; first compound 0.05 µM): 0.395
relative viability (SK-MES-1; first compound 0.1581 µM): 0.393
relative viability (SK-MES-1; first compound 0.5 µM): 0.43
relative viability (HOP-62; first compound 0.005 µM): 0.593
relative viability (HOP-62; first compound 0.01581 µM): 0.752
relative viability (HOP-62; first compound 0.05 µM): 0.623
relative viability (HOP-62; first compound 0.1581 µM): 0.719
relative viability (HOP-62; first compound 0.5 µM): 0.678
relative viability (PC-14; first compound 0.005 µM): 0.255
relative viability (PC-14; first compound 0.01581 µM): 0.317
relative viability (PC-14; first compound 0.05 µM): 0.228
relative viability (PC-14; first compound 0.1581 µM): 0.284
relative viability (PC-14; first compound 0.5 µM): 0.215
relative viability (COR-L 105; first compound 0.005 µM): 0.331
relative viability (COR-L 105; first compound 0.01581 µM): 0.458
relative viability (COR-L 105; first compound 0.05 µM): 0.331
relative viability (COR-L 105; first compound 0.1581 µM): 0.342
relative viability (COR-L 105; first compound 0.5 µM): 0.306
relative viability (NCI-H2170; first compound 0.005 µM): 0.557
relative viability (NCI-H2170; first compound 0.01581 µM): 0.528
relative viability (NCI-H2170; first compound 0.05 µM): 0.397
relative viability (NCI-H2170; first compound 0.1581 µM): 0.595
relative viability (NCI-H2170; first compound 0.5 µM): 0.574
relative viability (NCI-H1793; first compound 0.005 µM): 0.409
relative viability (NCI-H1793; first compound 0.01581 µM): 0.325
relative viability (NCI-H1793; first compound 0.1581 µM): 0.293
relative viability (NCI-H1793; first compound 0.5 µM): 0.147
relative viability (NCI-H1355; first compound 0.005 µM): 0.765
relative viability (NCI-H1355; first compound 0.01581 µM): 0.796
relative viability (NCI-H1355; first compound 0.05 µM): 0.753
relative viability (NCI-H1355; first compound 0.1581 µM): 0.699
relative viability (NCI-H1355; first compound 0.5 µM): 0.729
relative viability (NCI-H647; first compound 0.005 µM): 0.15
relative viability (NCI-H647; first compound 0.01581 µM): 0.192
relative viability (NCI-H647; first compound 0.05 µM): 0.173
relative viability (NCI-H647; first compound 0.1581 µM): 0.17
relative viability (NCI-H647; first compound 0.5 µM): 0.315

From the supplement of paper PMC10307832
